Laboratory results taken from patent US20200138764A1, “METHODS AND DEVICES FOR ACTIVATING ADIPOSE TISSUE” (The Procter & Gamble Company, priority 2018, published 2020).

Test system: Human subcutaneous pre-adipocytes
Experiment: Lipogenesis Assay (AdipoRed staining)
Assay type: cell-based
Conditions: AdipoRed fluorescence, NI = no inhibition at concentration less than/equal to 1 mM
Experimental: Lipogenesis is the process by which acetyl-CoA is converted to fatty acid. Through lipogenesis and subsequent triglyceride synthesis, energy can be stored in the form of adipose tissue (i.e. fats). To determine what effect, if any, activating compounds (shown in TABLE 1) had on lipogenesis, the protocol listed below was used.
To determine whether the activating compounds (shown in TABLE 1) impacted the formation of white adipocytes from pre-adipocytes, a lipogenesis assay was performed. The cells utilized in the protocol were cryo-preserved Human subcutaneous pre-adipocytes superlot (Zen-Bio, Inc., Research Triangle Park, N.C., Cat # SP-F-SL). The growth media used was PM-1 (Zen-Bio, Inc., Research Triangle Park, N.C., cat # PM-1) plus 5 ng/mL Epidermal Growth Factor (EGF). The PM-1+5 ng/mL EGF was prepared by adding 12.5 uL of 200 ug/mL EGF stock to 500 mL PM-1. The differentiation media used was DM-2 (Zen-Bio, Inc., Research Triangle Park, N.C., cat # DM-2). The adipocyte maintenance media used was AM-1 (Zen-Bio, Inc., Research Triangle Park, N.C., cat # AM-1).
First, the human subcutaneous pre-adipocyte cells were thawed in a 37° C. water bath. Next, the thawed pre-adipocyte cells were added to 9 mL of growth medium (PM-1) at 20° C. in a 15 mL polypropylene tube (Bioexpress, Corning, Corning, N.Y.). The tube was centrifuged at 280×g (˜1100 rpm) at 20° C. for 5 min. After 5 min, the supernatant was removed and the accumulated solids were re-suspended in 2 mL of PM-1 using trituration. The suspension of cells was counted under 100× magnification using a Cyto C-Chip hemacytometer (Incyto, Seoul, South Korea, cat # DHC-N01-5). In order to proceed, 15-50 cells per 1×1 mm square in hemacytometer was needed. If, the number of cells per square was not met, 6.7×10^5 (670,000) cells per T75 flask (Bioexpress, Corning, Corning, N.Y.) were added to each square and the suspension was diluted to 20 mL with PM-1. Every other day, new media was added to replace media removed due to metabolism by the cells. The cells were re-counted as described previously. Cells were grown to 80-90% confluence, which took approximately 4-5 days. 80-90% confluence is determined by visual inspection of the area of the flask occupied by the cells. When 80-90% of the flask area has been occupied, cells are at 80-90% confluence. Cell colonies were then split 1:6 by harvesting from a single flask and equally dividing the harvested cells into six flasks. Colonies were not allowed to exceed 3 passages and were not grown to complete confluence. The pre-adipocytes were grown until they contact with other cells in the flask to aid differentiation into white or brown adipocytes.
After the pre-adipocytes were sufficiently grown to 90% confluence, the cells were ready for differentiation and treatment with an activating compound. Cells were washed with 3 mL of PBS and detached using 3 mL of Trypsin EDTA. The cells were incubated at 37° C. for 5 minutes. Next, the cells were centrifuged at 280×g at 20° C. for 5 minutes. The supernatant was discarded and the resulting pellet was re-suspended in 10 mL of PM-1 using trituration. Cells were counted at 100× magnification and the cells were diluted to 86,667 cells/mL (˜13,000 cells/150 μL) by adding the necessary amount of PM-1 to achieve the desired concentration. Upon addition of PM-1, samples were swirled by hand to evenly disperse the cells prior to plating.
Once confluence is reached, 150 μL of differentiation media (DM-2) was added (DAY 0). Samples were incubated at 37° C. for 6 days. On DAY 6, 90 μL of media was removed from each sample via aspiration, without touching the bottom of the well. Next, 140 μL of adipocyte maintenance medium (AM-1) was added. The AM-1 ran down the side of well. On DAY 6, activating compounds were added (2 μL of 10 mM activating compound) to give a final concentration of 100 μM of activating compounds. […]

IC50 (Homo sapiens) | Lipogenesis IC50 | IC50 | SMILES
25 µM | – | – | CC(C)[C@@H]1CC[C@@H](C)C[C@H]1C(=O)NC[C@@H](NC(=O)[C@H](C)N)c1ccccc1 [Formula III]
> 1000 µM | no inhibition | – | CC1CCC(C(C)C)C(O)C1 (centres unmarked) [Menthol]
500 µM | – | 600 µM | CCOC(=O)CNC(=O)[C@@H]1C[C@H](C)CC[C@H]1C(C)C [WS-5]
